Laboratory results as given in patent US20240082221A1, “COMPOSITIONS AND METHODS FOR THE IDENTIFICATION OF COMPOUNDS THAT PROTECT AGAINST LIPOFUSCIN CYTOTOXICITY” (priority 2021, published 2024).
Peptide text beside a SMILES is read from it. * marks the point of attachment. Cbz = O=C(OCc1ccccc1)*; CH2F = FC*

What follows are compounds tested on ARPE-19 cells. Conditions: 10 μM methyl-βCD, 20 μM A2E.
Method: Cell Viability Assay. […] 1× AlamarBlue solution prepared in OptiMEM was used to replace the media supernatant and the plate's fluorescence was determined at 555 nm excitation/585 nm emission with a SpectraMax M (Molecular Devices, CA, USA), after 1 h. […] The exact timing of appearance of far-red (DRAQ7=plasma membrane leakage) and blue (NUC405=caspase 3 activation) fluorescence signals was critical to differentiate apoptosis and necrosis from secondary events, such as membrane damage and generalized proteolytic activation during the late phase of apoptosis and necrosis, respectively.
Real time monitoring of necrotic and apoptotic cell-death. Cell-death assay to study Lipofuscin's dark toxicity was performed. 90% confluent ARPE-19 or hfRPE were incubated overnight in serum free media supplemented with indicated LB concentration. Viability was assessed at 24 hrs by AlamarBlue®, or microscopy with NUC405/DRAQ7. Real time monitoring of necrotic (red) and apoptotic (blue) cell-death was performed by automated fluorescence microscopy. The exact timing of appearance of far-red (DRAQ7=plasma membrane leakage) and blue (NUC405=caspase 3 activation) fluorescence signals was critical to differentiate apoptosis and necrosis from secondary events, such as membrane damage and generalized proteolytic activation during the late phase of apoptosis and necrosis, respectively.
Chemical inhibitors. Chemical inhibitors used in this study are described in FIG. 12.

How did the “protection against A2E cytotoxicity by neutralization of detergent activity” value turn out when methyl beta-cyclodextrins [MβCD] was run?
Its value is “did not protect against A2E”.

Same assay, conditions: ARPE19 pretreated 1 hr, then A2E 25 μM for 24 hrs in presence of drug, AlamarBlue

For `Cc1cc(Nc2cc(N)ncn2)c(=O)n2c1C(=O)NC21CCCCC1` [eFT508], which “protection against lethal doses of A2E, viability” value (shortened to “protection against lethal doses”) is on record?
Its value is “did not confer significant protection”.

For `CCC(=O)N1CCN(c2ccc(-n3c(=O)ccc4cnc5ccc(-c6cnc7ccccc7c6)cc5c43)cc2C(F)(F)F)CC1` [Torin-1], which “protection against lethal doses” value is on record?
Its value is “did not confer significant protection”.

With `N=C(N)N/N=C/c1c(Cl)cccc1Cl` [Guanabenz] as the compound, how does the “protection against lethal doses” value read?
Its value is “did not confer significant protection”.

`O=C(/C=C/c1ccccc1)NC(NC(=S)Nc1ccc(Cl)cc1)C(Cl)(Cl)Cl` (stereo not drawn) [SAL003] was tested. Which “protection against lethal doses” value did it give?
The value was “protected against lipofuscin”.

For `COc1cc(OC)c(/C=C/S(=O)(=O)Cc2ccc(OC)c(OP(=O)(O)O)c2)c(OC)c1` [Briciclib], which “protection against lethal doses” value is on record?
The value was “did not confer significant protection”.

Same assay, conditions: ARPE-19, inhibitor pretreatment, A2E/ATRD 24 h, no light, AlamarBlue

For `COc1ccc(O)c(C(C)(C)C)c1` [BHA], which “protection against light-independent LF (A2E/ATRD) cytotoxicity, RPE survival” value is on record?
The value was “did not rescue”.

For `c1cc(Nc2cc(C3CC3)[nH]n2)nc(Nc2ccc3nc[nH]c3c2)n1` [APY29], which “protection against light-independent LF (A2E/ATRD) cytotoxicity, RPE survival” value is on record?
The value was “did not translate into survival”.

For `CN1CCN(C(=O)c2ccc(-c3ccc4c(C=O)c(O)ccc4c3)s2)CC1` [MKC-3946], which “protection against light-independent LF (A2E/ATRD) cytotoxicity, RPE survival” value is on record?
Its value is “did not translate into survival”.

`COC(=O)C[C@H](NC(=O)[C@H](C)NC(=O)[C@@H](NC(=O)OCc1ccccc1)C(C)C)C(=O)CF` [z-VAD(OMe)-FMK] (Cbz-Val-Ala-Asp(OMe)-CH2F) was tested. Which “protection against light-independent LF (A2E/ATRD) cytotoxicity, RPE survival” value did it give?
Its value is “provided no protection”.

How did the “protection against light-independent LF (A2E/ATRD) cytotoxicity, RPE survival” value turn out when `COc1nccnc1NS(=O)(=O)c1ccc(NC(=O)/C=C/c2ccc([N+](=O)[O-])s2)cc1` [necrosulfonamide] was run?
Its value is “increased RPE survival in a dose dependent manner”.

For `Cc1cc(=O)oc2c(C=O)c(O)ccc12` [4μ8C], which “protection against light-independent LF (A2E/ATRD) cytotoxicity, RPE survival” value is on record?
Its value is “did not translate into survival”.

Which “protection against light-independent LF (A2E/ATRD) cytotoxicity, RPE survival” value does the source give for `O=S(=O)(N=Cc1c(O)ccc2ccccc12)c1cccs1` [STF-0831] here?
The value was “did not translate into survival”.

Which “protection against light-independent LF (A2E/ATRD) cytotoxicity, RPE survival” value does the source give for `CC(C)(C)c1nc(-c2cccc(NS(=O)(=O)c3c(F)cccc3F)c2F)c(-c2ccnc(N)n2)s1` [dabrafenib] here?
Its value is “increased RPE survival in a dose dependent manner”.

For `CC(C)c1nc(-c2ccc(NC(=O)Nc3cccc(C(F)(F)F)c3)c3ccccc23)c2c(N)nccn12` [KIRA3], which “protection against light-independent LF (A2E/ATRD) cytotoxicity, RPE survival” value is on record?
Its value is “sufficient to protect against necroptosis by LF”.
